Results published in patent US20190380954A1, “Bone Regeneration Agent” (Kao Corporation, priority 2017, published 2019).

Key:
[1] = tested on: gums; settings: niacin or an ester compound thereof, intraoral composition; cited from earlier work
[2] = tested on: alveolar bone of rats with ligature-induced periodontitis; settings: niacin 25 mM in PBS, 100 μL dropped onto right and left second molars twice a day for 4 weeks after ligature removal; compared to PBS group; base line group 0%, Sham group 100%; Tukey, 5%
Description: Twenty-eight 8-week-old male Wister Rats were purchased from Japan SLC, Inc., and the rats were acclimated for one week. Subsequently, the body weights of the rats were measured, and the rats were assigned into four groups (base line group, Sham group, PBS group, and niacin group) such that the average body weights of the groups would be even.
Under isoflurane inhalation anesthesia, No. 3-0 nylon sutures (manufactured by Akiyama Seisakusho Co., Ltd.) were ligated to the right and left second molars in the upper jaw of the rats of the base line group, PBS group, and niacin group to induce periodontitis, and the rats of the respective groups were reared for two weeks. […]
After rearing for two weeks, the ligatures (No. 3-0 nylon sutures described above) were excised from the rats of the PBS group and the niacin group. For the base line group, the rats were euthanized by bleeding from the abdominal aorta under isoflurane inhalation anesthesia, and the alveolar bone resorption depths of the respective groups were measured by the following method. […]
The alveolar bone regeneration amount of the base line group was designated as 0%, and the alveolar bone regeneration amount of the Sham group was designated as 100%. Thus, the alveolar bone regeneration amounts of the PBS group and the niacin group were calculated from the average alveolar bone resorption depth thus calculated. […]

[3] = tested on: periodontal disease model rat; settings: suppression of alveolar bone resorption is not reported; cited from earlier work
[4] = tested on: gums / periodontal pocket; settings: blood circulation enhancers such as vitamin E; cited from earlier work

| Molecule | blood circulation in the gums [1] | regeneration amount of the alveolar bone [2] | inflammatory response [3] | Gingival index (swelling of gums) [4] | Periodontal probing depth (depth of periodontal pocket, reflecting extent of alveolar bone resorption) [4] |
| --- | --- | --- | --- | --- | --- |
| O=C(O)c1cccnc1 [niacin, niacin (nicotinic acid)] | promotes blood circulation in the gums | significantly increased | – | – | – |
| vitamin E | – | – | suppresses inflammatory response | do not improve | do not improve |
